IC50 data for three molecules are collected here from patent US20210038566A1, “USE OF MODULATORS OF NEET PROTEINS FOR THE TREATMENT OF INFECTION” (ENYO PHARMA, priority 2018, published 2021).

This test has as its system H1N1 (influenza A/New Caledonia/20/99). The test is described as follows: microbe, parasite or virus in culture. The test is classed as cell-based. To be noted: H1N1, A549, 48 h, read-out: IC50 (antiviral effect, Influenza replication).
As usually defined, the IC50 is the point on the concentration scale where inhibition reaches its midpoint. `COc1ccc(C(=O)Nc2sc3c(c2C(=O)O)CCC(C)(C)C3)cc1OC` [Compound #18]: the IC50 worked out at 0.05 µM.

For the molecule `CCOC(=O)N1CCC(NC(=S)Nc2cc(Cl)cc(Cl)c2)CC1` [Compound T01001, ethyl-4-(3-(3,5-dichlorophenyl)thioureido)piperidine-1-carboxylate], the IC50 was 18 µM. In the case of `CCc1ccc(CCOc2ccc(CC3SC(=O)NC3=O)cc2)nc1` (stereo not drawn) [Pioglitazone] it was 38 µM.
